Data taken from patent publication US20110104064A1, “CYCLIZED NON-NATIVE SYNTHETIC PEPTIDE AND COMPLEX OF PEPTIDES COMPRISING SAID CYCLIZED PEPTIDE, INTENDED TO INDUCE AND TO CH[…] PREVENTION OR TREATMENT OF CONDITIONS IN MAMMALS” (priority 2008, published 2011).
Bridges are numbered along the chain shown (N, C = ends). Where no end group is shown, it is not given here.

Experiments:
monocytes = experiment: Leishmanicidal activity of monocytes (cell-mediated Th1 response); assay type: cell-based, dog; details: for immune response after vaccination (summary of Table I): dogs, 1 month after the 3rd injection, with adjuvant QA21
From the text: (§1) This evidence was gathered using two techniques: • Assaying the leishmanicidal activity of the monocytes according to the method described previously (Patent FRO1076060); • Detection of dog IgG2, specific to the cyclized peptide E34P and the carboxyterminal group of PSA.
(§2) Biological analysis consisted of: • Serology of specific IgG2 of cyclized peptide E34P and of the carboxyterminal group of PSA; • Leishmaniasis serology: quantitative immunofluorescence of the total IgG (sign of infection); • Leishmanicidal activity of the monocytes (cell-mediated response).

[1] = test system: Leishmania promastigotes and amastigotes; experiment: Inhibition of parasitic growth by serums from vaccinated dogs; assay type: cell-based; details: in vitro
Procedure: Inhibition of the growth of promastigotes and amastigotes in the presence of IgG2 (Patent FR0209506).
The role of the IgG2 on the viability and growth of Leishmania promastigotes and amastigotes was analyzed with immunoserums from dogs vaccinated with the mixture including the cyclized peptide E34P and the serums from the placebo dogs.

Leishmania = experiment: Infection test in vaccinated dogs, parasitology from marrow punctures; assay type: in vivo; details: four months after the infection test
Procedure: The infection test consisted of intravenously injecting 10^8 complement-treated promastigotes in metacyclic phase from a healthy dog and 5×10^8 peritoneous macrophages from a healthy dog, infected in vitro by amastigotes.
The promastigotes and the infected macrophages were diluted in sterile physiological serum to a final volume of 1.5 mL. This mixture was made up just prior to injection.
A parasitological examination was carried out from samples taken directly from the dog.
A smear from the bone-marrow puncture was made on a slide. This smear, once fixed in methanol was May Grümwald Giemsa stained and studied under an immersion microscope (×1000).
Some bone-marrow samples were cultivated in a biphasic culture medium NNN (Novy and Mac Neal, 1904, 4. Infec. Dis., 1:1-30) of which RPMI 1640 added to 20% of decomplemented fetal veal serum made up the liquid phase. Random subculturing was carried out every 4 to 6 days. The cultures were regularly studied by photon microscope (×400) for 20 minutes.
The parasitemias were quantified as follows: • +/−: elongated, immobile, refringent forms • +: 1 to 5 mobile/field promastigote forms • ++: >5 mobile/field promastigote forms • +++: cultivated to confluence.
It was necessary to add to these analyses the study of Leishmania by direct observation under microscope and culture in NNN medium from the bone-marrow after the infection test. […]

cyclized peptide E34P = experiment: ELISA serology of dog IgG2 vs. cyclised E34P after vaccination; assay type: in vivo; details: non-cyclization at Cys9/Cys15
Procedure: as §1
This detection was carried out by the ELISA method according to the microtitration technique of Kweider et al. (J. Immunol, 1987, 138, 299) by using an anti IgG2 conjugate. For this method, the peptide is biotinylated before coating onto microplates. This bonding to […] biotin-type molecules has the effect of rendering the cyclized peptide E34P more antigenic. We also use the recombinant protein coding for the carboxyterminal group of the PSA as antigen.
Biological analyses were carried out: • Before any injection • 1 month after the 3rd injection.
as §2

Substance: EDEHKGKYCRLGNDCRTTEPTTTATPRGTPTPAP (EDEHKGKYCRLGNDCRTTEPTTTATPRGTPTPAP; disulfide 9-15) [Group E34P]
- immune response after vaccination (summary of Table I) (monocytes): only partial response
- neutralizing / anti-parasitic role of the induced IgG2 [1]: induces IgG2 immunoglobulins capable of neutralizing the proliferation
- protection after the infection test (summary of Table II) (Leishmania): insufficient to induce an effective response

Substance: NON-cyclized peptide E34P: the non-cyclized form of peptide E34P (SEQ ID No. 1 without Cys9/Cys15 disulfide bridge) (EDEHKGKYCRLGNDCRTTEPTTTATPRGTPTPAP; non-cyclized, no disulfide; Fully-synthetic sequence)
- immune response after vaccination (summary of Table I) (monocytes): less effective than the cyclized E34P
- Th1 stimulation (monocytes; peptide used alone or in combination with other peptides): only induces very partial Th1 stimulation
- IgG2 synthesis (cyclized peptide E34P): only induces slight IgG2 synthesis
